From patent US4939134A, “26-aminocholesterol and derivatives and analogs thereof in the regulation of cholesterol accumulation in body tissue” (New York University, priority 1988, dated 1990)
Entries after “also recorded” stand apart in the source; their conditions may differ.

Experiments:
HepG2 Cells [1] = assay: Total 125I-LDL binding to HepG2 cells; format: cell-based, human; conditions: for I-LDL BINDING: HepG2, 10 ug/ml 125I-LDL, 4 h, 4° C., n = 3, untreated 36.0; for LDL-binding (in words): HepG2 / hepatic cells
Text: (§1) HepG2 cells were obtained from Dr. Barbara Knowles of the Wistar Institute, Pennsylvania. The HepG2 stock monolayers were maintained under the same conditions as the fibroblast monolayers, in a medium comprising MEM supplemented with 10% heat-inactivated FBS, and 1% (v/v) each of penicillin-streptomycin solution, non-essential and essential amino acids, and L-glutamine.
(§2) For experiments using HepG2 cells, confluent stock monolayers were washed once with Dulbecco's PBS, dissociated with 0.05-0.02% trypsin-EDTA followed by treatment with deoxyribonuclease I (0.1%), and were seeded (3.0×10^6) under identical conditions. The experimental MEM contained 25% (v/v) D2 O, 9% (v/v) delipidated FBS, and 1% (v/v) each of heat-inactivated FBS, penicillin-streptomycin, essential and non-essential amino acids, L-glutamine and 20 mM HEPES.
(§3) The fibroblast and hepatoblastoma cells were cultured in media containing 25% D2 O and 1% FBS in order to determine de novo cholesterol synthesis under conditions that permit receptor mediated cholesterol transport, according to the method of Easterman & Javitt et al., J. Lipid Res., 26: 950-954 (1985). Dish cultures of each cell type were prepared, and 26-aminocholesterol, dissolved in N,N-dimethylformamide (DMF, 9 ul per dish, 0.3% v/v) was added to each culture. The cells were then grown to confluence (96 hours, day 5). […] Duplicate or triplicate dishes containing 9 ul of DMF, but without 26-aminocholesterol, were used as controls.
LDL (d, 1.019-1.03) was isolated by sequential preparative ultracentrifugation of normal human plasma, using solid KBr for density adjustment, according to the methods of Havel et al., J. Clin. Invest., 34: 1345-1353 (1955) and Radding & Steinberg, J Clin. Invest., 39: 1560-1569 (1960). The isolated LDL was then iodinated with ^125 INa by the monochloride procedure of McFarlane, Nature, 102: 53 (1958), as modified for lipoproteins according to Bilheimer et al., Biochim. Biophys. Acta. 260: 212-221 (1972). To remove free iodine, the LDL preparation was subjected to column chromatography on a Sephadex G-25M disposable mini-column (Pharmacia PD-10) and was dialized against 0.15 M NaCl and […] EDTA, pH 7.4. The specific activity of all LDL preparations ranged between 160-300 cpm/mg of LDL proteins. ^125 I-LDL was stored at 4° C. and was sterilized by filtration through a 0.45 um membrane just prior to incubation with the treated fibroblast and hepatoblastoma cell cultures and control cultures.
For binding studies, a fixed concentration of 10 ug/ml of ^125 I-LDL was added directly to the monolayers of the confluent culture medium (at or near the 96th hour) and incubation was continued for a further 4 hours at 37° C. for fibroblasts and 4° C. for HepG2 cells. After this incubation, the culture dishes were placed on ice, the medium was removed, and the cell monolayers were washed as described in Goldstein & Brown, J. Biol. Chem., 249: 5153-5162 (1974). The monolayers were then scraped off the dishes with a teflon policeman and were solubilized with 1 ml of 0.1 N NaOH.
Cell-associated radioactivity was measured in a Packard auto gamma scintillation spectrometer Model 5160, and cell protein was measured by the method of Lowry et al., J. Biol. Chem., 193: 265-275 (1951), using bovine serum albumin as a standard. Total ^125 I-LDL binding was expressed as the mass of ^125 I-LDL (mg) per mg of cell protein. […]

HepG2 Cells [2] = assay: De novo cholesterol synthesis in HepG2 hepatocytes (D2O); format: cell-based, human; conditions: for % DE NOVO (De Novo Cholesterol Synthesis): HepG2, 96 h, n = 3, untreated 55.8; for de novo cholesterol synthesis (in words): HepG2 / human hepatocytes
Text: as §1, §2, §3
After 96 hours of incubation, medium was removed from the cell cultures, and the cells were washed with Dulbecco's PBS and were harvested with 0.05% trypsin - 0.02% EDTA. The protease was deactivated with an equivolume aliquot of soybean trypsin inhibitor, and the resulting cell suspension was centrifuged for 5 minutes at 500xg. An internal standard of 5B-cholestan-3B-ol was added to the pellets prior to extraction with an 8:4:3 chloroform:methanol:water Folch mixture, as described in Folch et al., J. Biol. Chem., 266: 497-509 (1957). An aliquot of the extract was blown to dryness under nitrogen and silylated with 2:1:1 MSTFA (a sylated reagent supplied by Pierce Co.): toluene:-pyridine. Free cholesterol was determined by gas-liquid chromatography (GLC) on a Perkin-Elmer capillary gas-liquid chromatography model 8320 fitted with a 20 m DE-1 methylsilicon glass column (Supelco). The remaining extract was dried and saponified with 2% ethanolic KOH at 80° C. for one hour. The […] was then re-extracted and total cholesterol was measured by GLC after silylation. Cholesterol ester was calculated as the difference between the total and free cholesterol determinations. Newly synthesized cholesterol was determined by GLC-MS isotope mass ratios, using a Hewlett-Packard GC-MS spectrometer model 5890 fitted with DB-1 methyl silicon 0.18 i.d. 20 m glass column (Supelco), according to the method of J. Lipid. Res., 26: 950-954, supra. […]

## CC(CS)CCC[C@@H](C)[C@H]1CC[C@H]2[C@@H]3CC=C4C[C@@H](O)CC[C@]4(C)[C@H]3CC[C@]12C (some centres unmarked) [26-SH]
HepG2 Cells [1]; 5.0 uM
  I-LDL BINDING: 37.8 +/- 3.4 ug LDL protein per mg cell pro
HepG2 Cells [1]; 10.0 uM
  I-LDL BINDING: 45.8 +/- 3.9 ug LDL protein per mg cell pro
HepG2 Cells [1]; 20.0 uM
  I-LDL BINDING: 35.7 +/- 4.8 ug LDL protein per mg cell pro
HepG2 Cells [1]
  LDL-binding (in words): no impact
HepG2 Cells [2]; 5.0 uM
  % DE NOVO (De Novo Cholesterol Synthesis): 49.7%
HepG2 Cells [2]; 10.0 uM
  % DE NOVO (De Novo Cholesterol Synthesis): 47.9%
HepG2 Cells [2]; 20.0 uM
  % DE NOVO (De Novo Cholesterol Synthesis): 41.9%
HepG2 Cells [2]
  de novo cholesterol synthesis (in words): no impact

## C[C@@H](CN)CCC[C@@H](C)[C@H]1CC[C@H]2[C@@H]3CC=C4C[C@@H](O)CC[C@]4(C)[C@H]3CC[C@]12C [26-NH2, 26-aminocholesterol]
HepG2 Cells [1]; 0.156 uM
  I-LDL BINDING: 40.9 +/- 3.1 ug LDL protein per mg cell pro
HepG2 Cells [1]; 0.312 uM
  I-LDL BINDING: 43.9 +/- 4.0 ug LDL protein per mg cell pro
HepG2 Cells [1]; 0.625 uM
  I-LDL BINDING: 52.4 +/- 8.8 ug LDL protein per mg cell pro
HepG2 Cells [1]
  LDL-binding (in words): do not provide a similar reduction; also recorded: little or no effect; also recorded: no impact
HepG2 Cells [2]; 0.156 uM
  % DE NOVO (De Novo Cholesterol Synthesis): 38.3%
HepG2 Cells [2]; 0.312 uM
  % DE NOVO (De Novo Cholesterol Synthesis): 45.1%
HepG2 Cells [2]; 0.625 uM
  % DE NOVO (De Novo Cholesterol Synthesis): 42.0%
HepG2 Cells [2]
  de novo cholesterol synthesis (in words): do not provide a similar reduction; also recorded: no impact

## CC(CO)CCC[C@@H](C)[C@H]1CC[C@H]2[C@@H]3CC=C4C[C@@H](O)CC[C@]4(C)[C@H]3CC[C@]12C (some centres unmarked) [26-OH, 26-hydroxycholesterol]
HepG2 Cells [1]; 0.625 uM
  I-LDL BINDING: 53.6 +/- 1.3 ug LDL protein per mg cell pro
HepG2 Cells [1]
  LDL-binding (in words): do not provide a similar reduction
HepG2 Cells [2]; 0.625 uM
  % DE NOVO (De Novo Cholesterol Synthesis): 57.1%
HepG2 Cells [2]
  de novo cholesterol synthesis (in words): do not provide a similar reduction
